Like-named read-outs stand apart in the source and are kept apart here.
Key:
[1] = molecular target: T1, human MC1 receptor (Homo sapiens, UniProt Q01726); test: Human MC1 receptor activation, cAMP production in cells transiently expressing the receptor; format: cell-based; conditions: FreeStyle 293-F cells expressing human MC1 receptor, α-MSH maximum = 100%
T1 construct: expressed in transfected cells; host or cells: FreeStyle 293-F cells (transient, electroporation)
Excerpt: (1) Construction of Human MC Receptor-Expressing Vector
A human MC4 receptor gene (GenBank Accession No.: NM_005912.2), a human MC1 receptor gene (GenBank Accession No.: NM_002386.3), or a human MC3 receptor gene (GenBank Accession No.: NM_019888.3) was introduced into an expression vector pcDNA™ 3.1N/V5-His TOPO (registered trademark) (Thermo Fisher Scientific Inc).
(2) Construction of Cells Transiently Expressing Human MC Receptor
An expression vector for a human MC4, MC1, or MC3 receptor was introduced into FreeStyle™ 293-F cells (Thermo Fisher Scientific Inc., product number: R790-07). For the introduction, electroporation was employed. That is, 1×10^7 FreeStyle™ 293-F cells were suspended in 80 μL of an Electroporation Buffer (Thermo Fisher Scientific Inc., product number: B201-100), and 20 μg of the expression vector was added thereto. The resultant was put into a cuvette (OC-100 Processing Assembly, MaxCyte, Inc.) and electroporated with MaxCyte STX (registered trademark) (MaxCyte, Inc.). The cells were cultured for a day, suspended in a Cell Banker (registered trademark) 1 (TAKARA BIO INC. or JUJI FIELD Inc., product number: BLC-1), and stored frozen until they were used.
(3) Measurement of Amount of cAMP Production
Measurement was carried out by using a LANCE (registered trademark) Ultra cAMP Kit (PerkinElmer, Inc.) in accordance with the attached instructions. That is, after dissolution in DMSO, the test compound (a final concentration of 1 pM to 30 μM) diluted with an assay buffer (Hank's balanced salt solution, 5 mM 4-(2-hydroxyethyl)-1-piperazineethanesulfonic acid (HEPES), 0.5 mM 3-isobutyl-1-methylxanthine (IBMX), 0.1% bovine serum albumin, pH 7.4), or α-MSH (Bachem Inc., a final concentration of 1 pM to 30 μM) was added to OptiPlate-384 (PerkinElmer, Inc.). Furthermore, the suspension of the cells transiently expressing the human MC4, MC1, or MC3 receptor prepared using the assay buffer was added thereto at 1,000 cells/well, and then left to stand at room temperature for about 1 hour. Thereafter, an Eu-cAMP tracer solution and an ULight™-anti-cAMP solution were added thereto, and then the resulting solution was left to stand at room temperature for about 1 hour. The amount of cAMP was calculated using EnVision (registered trademark) (PerkinElmer Inc.).
For the agonistic activity, the efficacy (EC50 (μM)) was calculated by a non-linear regression method with a Sigmoid-Emax model, by defining the maximum reaction using α-MSH as 100% and the reaction using the vehicle alone as 0%, respectively.

[2] = test system: phenylephrine-induced urethral pressure increase; test: Effect on rat urethral pressure (phenylephrine-induced urethral pressure increase); format: in vivo; conditions: read-out: ID40
Description: The present Test Example was performed by partially modifying the technique reported as a testing system for evaluating a urethral resistance-reducing action (European Journal of Pharmacology, 679, 127-131 (2012)). Male Wistar rats (Charles River Laboratories Japan, Inc.) were anesthetized with urethane (1.2 g/kg ip), and immobilized in a supine position. The midline incision was performed in the lower abdominal portion such that the bladder was exposed. The bladder apex was incised, and from the incision site, a microchip pressure transducer catheter (3.5 Fr, Millar, Inc) was inserted and implanted into the inside of the urethra. In addition, a cannula for drug administration was implanted into the femoral vein. After the urethral pressure was stabilized, phenylephrine hydrochloride (Sigma-Aldrich Co. LLC., 30 μg/kg) was intravenously administered to induce an increase in the urethral pressure. At an interval of about 30 minutes, the above operation was repeated twice or more so as to confirm the stability of the phenylephrine hydrochloride-induced urethral pressure increasing reaction. Then, a test compound (dissolved in 20% dimethyl acetamide, 10% Cremophor (registered trademark), and 70% physiological saline) was intravenously administered, and after 5 minutes, phenylephrine hydrochloride was administered. The procedure of the administration of the test compound and the administration of phenylephrine hydrochloride was repeated at an interval of about 30 minutes, and 3 to 5 doses of the test compound was evaluated (the test compound was administered at increasing doses). The obtained data was introduced into a personal computer through PowerLab (registered trademark) (ADInstruments, Inc.) and analyzed using LabChart (registered trademark) (ADInstruments, Inc.). For the evaluation, the value (AUC value, mmHg-s) of the area under the urethral pressure for one minute before and after administration of phenylephrine hydrochloride was determined to calculate the difference (ΔAUC value) between the AUC value before the administration of phenylephrine hydrochloride and the AUC value after the administration of phenylephrine hydrochloride. The ΔAUC value obtained before administering the test compound was regarded as being 100%, and based on this, the ratio (reaction rate) of the ΔAUC value of the test compound at each dose was calculated. The dose at which the obtained reaction rate became 60% (40% as an inhibition rate) was defined as ID40, and the ID40 values of the test compounds were calculated by non-linear regression.

[3] = test system: drug-induced voiding dysfunction model rat; test: Effect on drug-induced voiding dysfunction model rat; format: in vivo; conditions: male SD rats; atropine sulfate + midodrine hydrochloride induced voiding dysfunction; inhibition of decrease in voiding efficiency or increase of residual urine; P<0.05
Excerpt: Male Sprague Dawley (SD) rats (Japan SLC, Inc.) were anesthetized with isoflurane and a cannula was placed in the bladder, the stomach, and the jugular vein. Then, the rats were awakened in a Baellman cage (Natsume Seisakusho Co., Ltd.). After a post-operative stabilization period, physiological saline was continuously infused into the bladder by an infusion pump (Terumo Corporation, product number: TE-331 S, STC-528) to induce voiding. Infusion of the physiological saline was stopped as soon as the voiding began, and the amount of the voided urine was measured using an electronic top-loading balance installed under the Ballman cage. After voiding ended, the residual urine was collected by gravity through the cannula implanted into the bladder and weighed, and the weight was taken as the amount of the residual urine. Furthermore, the intravesical pressure was measured by a pressure transducer (Nihon Kohden Corporation, product numbers: DX-100) through the bladder cannula. The test compound or the vehicle was administered into the stomach, and atropine sulfate (Sigma-Aldrich Co. LLC., 0.01 mg/kg) as an anticholinergic drug and midodrine hydrochloride (Sigma-Aldrich Co. LLC., 0.3 mg/kg) as an a adrenergic receptor agonist were intravenously administered to induce voiding dysfunction. The voiding efficiency (=[voided amount/(voided amount+amount of residual urine)]×100) and the amount of the residual urine before and after the administration of the test compound or the vehicle were measured, and the amount changed was evaluated. The value obtained by the administration of the vehicle and the value obtained by the administration of the test compound were compared in a Dunnett's multiple comparison test with a statistically significant difference (P<0.05), and the minimum dose at which the inhibitory action on a decrease in voiding efficiency or on an increase of the amount of residual urine observed was defined as a minimum effective dose (4 rats per group).

[4] = male Wistar rats, urethane anesthesia, intravenous, dose giving 40% inhibition of phenylephrine-induced urethral pressure ΔAUC

T1 sequence (Q01726 whole entry): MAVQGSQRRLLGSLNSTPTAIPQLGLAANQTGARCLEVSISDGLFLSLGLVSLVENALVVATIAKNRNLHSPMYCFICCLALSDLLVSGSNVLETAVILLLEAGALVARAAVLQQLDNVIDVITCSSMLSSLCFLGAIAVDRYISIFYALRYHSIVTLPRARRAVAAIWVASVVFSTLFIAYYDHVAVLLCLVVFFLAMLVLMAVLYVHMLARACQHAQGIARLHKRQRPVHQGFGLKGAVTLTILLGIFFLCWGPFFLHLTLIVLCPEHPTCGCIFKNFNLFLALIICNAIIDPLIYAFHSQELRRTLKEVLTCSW

| Compound | EC50 [1] [nM] | ED40 [2, 4] [mg/kg] | MED (minimum effective dose) [3] [mg/kg ig] | ED40 ([2]; iv) [mg/kg] |
| --- | --- | --- | --- | --- |
| CC(=O)N[C@@H](CC(C)(C)C)C(=O)N1C[C@H](C)N(C(=O)[C@@H]2CN(C(C)(C)C)C[C@H]2c2ccc(F)cc2F)C[C@H]1C.Cl [Example 4, N-{(2S)-1-[(2R,5S)-4-{[(3 S,4R)-1-tert-butyl-4-(2,4-difluorophenyl)pyrrolidin-3-yl]carbonyl}-2,5-dimethylpiperazin-1-yl]-4,4-dimethyl-1-oxopentan-2-yl}acetamide monohydrochloride] | 1000 | 11 | 0.01 | – |
| CC(=O)N[C@@H](CC(C)C)C(=O)N1CCN(C(=O)[C@@H]2CN(C(C)(C)C)C[C@H]2c2ccc(Cl)cc2F)C[C@H]1C [Example 5] | 710 | – | 0.01 | 25 |
| CC(=O)N[C@H](C(=O)N1CCN(C(=O)[C@@H]2CN(C(C)(C)C)C[C@H]2c2ccc(F)cc2F)[C@@H](C)C1)C1CCCCC1.Cl [Example 6, N-{(1S)-2-[(3S)-4-{[(3S,4R)-1-tert-butyl-4-(2,4-difluorophenyl)pyrrolidin-3-yl]carbonyl}-3-methylpiperazin-1-yl]-1-cyclohexyl-2-oxoethyl}acetamide monohydrochloride] | 2600 | 46 | 0.03 | – |

The next lines start with results.

| EC50 [1] [nM] | Compound | ED40 [2, 4] [mg/kg] | MED (minimum effective dose) [3] [mg/kg ig] | ED40 ([2]; iv) [mg/kg] |
| --- | --- | --- | --- | --- |
| 1700 | CC(=O)N[C@@H](CC(C)(C)C)C(=O)N1CCN(C(=O)[C@@H]2CN(C(C)(C)C)C[C@H]2c2ccc(F)cc2F)[C@@H](C)C1.Cl [Example 8] | 15 | 0.01 | – |
| 1600 | CC(=O)N[C@@H](CC(C)(C)C)C(=O)N1C[C@H](C)N(C(=O)C2CN(C(C)(C)C)CC2c2ccc(F)cc2)C[C@H]1C.Cl (stereo partly drawn) [Example 11] | 28 | 0.03 | – |

Reference: patent US10710988B2, “Piperazine derivative” (Astellas Pharma Inc., priority 2016, dated 2020)
